Assay results: patent publication US6613718B2, “Aryl ether derivatives and processes for their preparation and herbicidal and desiccant compositions containing them” (Ishihara Sangyo Kaisha, Ltd., priority 2001, dated 2003)

How the values were obtained:
[1] = tested on: barnyardgrass (Echinochloa crus-galli, ECHCG); test: Pre-emerge greenhouse herbicide activity screening, phytotoxicity rating; assay type: in vivo; conditions: 14 days after application
Procedure, shortened: (§1)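 Herbicidal effect was recorded as percent-style phytotoxicity, 0 (none) to 100 (complete plant death), two weeks post-application. Applications were made over soil (pre-emerge, sown a day earlier) or over 2-3 leaf plants (post-emerge), using acetone solutions at 15–1000 g ai/ha.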

[2] = tested on: common ragweed (Ambrosia artemisiifolia L., AMBEL); test: as above; assay type: in vivo; conditions: 14 days after application
Procedure, shortened: as §1

[3] = tested on: green foxtail (Setaria viridis, SETVI); test: as above; assay type: in vivo; conditions: 14 days after application
Procedure, shortened: as §1

[4] = tested on: ivyleaf morningglory (Ipomoea hederacea, IPOHE); test: as above; assay type: in vivo; conditions: 14 days after application
Procedure, shortened: as §1

[5] = tested on: johnsongrass (Sorghum halepense, SORHA); test: as above; assay type: in vivo; conditions: 14 days after application
Procedure, shortened: as §1

[6] = tested on: lambsquarters (Chenopodium album, CHEAL); test: as above; assay type: in vivo; conditions: 14 days after application
Procedure, shortened: as §1

[7] = tested on: large crabgrass (Digitaria sanguinalis, DIGSA); test: as above; assay type: in vivo; conditions: 14 days after application
Procedure, shortened: as §1

[8] = tested on: redroot pigweed (Amaranthus retroflexus, AMARE); test: as above; assay type: in vivo; conditions: 14 days after application
Procedure, shortened: as §1

[9] = tested on: sicklepod (Cassia obtusifolia, CASOB); test: as above; assay type: in vivo; conditions: 14 days after application
Procedure, shortened: as §1

[10] = tested on: velvetleaf (Abutilon theophrasti, ABUTH); test: as above; assay type: in vivo; conditions: 14 days after application
Procedure, shortened: as §1

[11] = tested on: field corn (Zea mays L., var. Dekalb 535, CORN); test: Pre-emerge greenhouse screening, crop safety (phytotoxicity rating); assay type: in vivo; conditions: 14 days after application
Procedure, shortened: as §1

[12] = tested on: soybean (Glycine max L., var. Pella 86, SOY); test: as above; assay type: in vivo; conditions: 14 days after application
Procedure, shortened: as §1

[13] = tested on: upland rice (Oryza sp., var.Tebonnet, RICE); test: as above; assay type: in vivo; conditions: 14 days after application
Procedure, shortened: as §1

[14] = tested on: barnyardgrass (Echinochloa crus-galli, ECHCG); test: Post-emerge greenhouse herbicide activity screening, phytotoxicity rating; assay type: in vivo; conditions: 14 days after application
Procedure, shortened: as §1

[15] = tested on: common ragweed (Ambrosia artemisiifolia L., AMBEL); test: as above; assay type: in vivo
Procedure, shortened: as §1

[16] = tested on: green foxtail (Setaria viridis, SETVI); test: as above; assay type: in vivo
Procedure, shortened: as §1

[17] = tested on: ivyleaf morningglory (Ipomoea hederacea, IPOHE); test: as above; assay type: in vivo; conditions: 14 days after application
Procedure, shortened: as §1

[18] = tested on: johnsongrass (Sorghum halepense, SORHA); test: as above; assay type: in vivo; conditions: 14 days after application
Procedure, shortened: as §1

[19] = tested on: lambsquarters (Chenopodium album, CHEAL); test: as above; assay type: in vivo
Procedure, shortened: as §1

[20] = tested on: large crabgrass (Digitaria sanguinalis, DIGSA); test: as above; assay type: in vivo; conditions: 14 days after application
Procedure, shortened: as §1

[21] = tested on: redroot pigweed (Amaranthus retroflexus, AMARE); test: as above; assay type: in vivo
Procedure, shortened: as §1

[22] = tested on: sicklepod (Cassia obtusifolia, CASOB); test: as above; assay type: in vivo
Procedure, shortened: as §1

[23] = tested on: velvetleaf (Abutilon theophrasti, ABUTH); test: as above; assay type: in vivo; conditions: 14 days after application
Procedure, shortened: as §1

[24] = Post-emerge greenhouse screening, crop safety / corn selectivity (phytotoxicity rating); assay type: in vivo, Zea mays L.; conditions: Zea mays (field corn), in vivo, 62.5 g ai/ha
Procedure, shortened: as §1

[25] = tested on: field corn (Zea mays L., var. Dekalb 535, CORN); test: as above; assay type: in vivo; conditions: 14 days after application
Procedure, shortened: as §1

[26] = tested on: soybean (Glycine max L., var. Pella 86, SOY); test: Post-emerge greenhouse screening, crop safety (phytotoxicity rating); assay type: in vivo; conditions: 14 days after application
Procedure, shortened: as §1

[27] = tested on: upland rice (Oryza sp., var.Tebonnet, RICE); test: as above; assay type: in vivo; conditions: 14 days after application
Procedure, shortened: as §1

[28] = 125 g ai/ha, 14 days after application
[29] = 250 g ai/ha, 14 days after application

Cn1nc(-c2cc(Oc3ncccn3)c(Cl)cc2F)c(Cl)c1[S+]([O-])C(F)F (stereo not drawn) [Compound 5-1]
ECHCG phytotoxicity rating (0-100 scale) ([1]; 125 g ai/ha): 100
ECHCG phytotoxicity rating (0-100 scale) ([1]; 250 g ai/ha): 100
AMBEL phytotoxicity rating (0-100 scale) ([2]; 125 g ai/ha): 75
AMBEL phytotoxicity rating (0-100 scale) ([2]; 250 g ai/ha): 100
SETVI phytotoxicity rating (0-100 scale) ([3]; 125 g ai/ha): 100
SETVI phytotoxicity rating (0-100 scale) ([3]; 250 g ai/ha): 100
IPOHE phytotoxicity rating (0-100 scale) ([4]; 125 g ai/ha): 99
IPOHE phytotoxicity rating (0-100 scale) ([4]; 250 g ai/ha): 100
SORHA phytotoxicity rating (0-100 scale) ([5]; 125 g ai/ha): 100
SORHA phytotoxicity rating (0-100 scale) ([5]; 250 g ai/ha): 100
CHEAL phytotoxicity rating (0-100 scale) ([6]; 125 g ai/ha): 100
CHEAL phytotoxicity rating (0-100 scale) ([6]; 250 g ai/ha): 100
DIGSA phytotoxicity rating (0-100 scale) ([7]; 125 g ai/ha): 100
DIGSA phytotoxicity rating (0-100 scale) ([7]; 250 g ai/ha): 100
AMARE phytotoxicity rating (0-100 scale) ([8]; 125 g ai/ha): 100
AMARE phytotoxicity rating (0-100 scale) ([8]; 250 g ai/ha): 100
CASOB phytotoxicity rating (0-100 scale) ([9]; 125 g ai/ha): 60
CASOB phytotoxicity rating (0-100 scale) ([9]; 250 g ai/ha): 90
ABUTH phytotoxicity rating (0-100 scale) ([10]; 125 g ai/ha): 99
ABUTH phytotoxicity rating (0-100 scale) ([10]; 250 g ai/ha): 100
CORN crop damage, phytotoxicity rating (0-100 scale) ([11]; 125 g ai/ha): 40
CORN crop damage, phytotoxicity rating (0-100 scale) ([11]; 250 g ai/ha): 50
SOY crop damage, phytotoxicity rating (0-100 scale) ([12]; 125 g ai/ha): 0
SOY crop damage, phytotoxicity rating (0-100 scale) ([12]; 250 g ai/ha): 65
RICE crop damage, phytotoxicity rating (0-100 scale) ([13]; 125 g ai/ha): 55
RICE crop damage, phytotoxicity rating (0-100 scale) ([13]; 250 g ai/ha): 80
ECHCG phytotoxicity rating (0-100 scale) ([14]; 125 g ai/ha): 75
ECHCG phytotoxicity rating (0-100 scale) ([14]; 250 g ai/ha): 65
AMBEL phytotoxicity rating (0-100 scale) ([15]; 31.3 g ai/ha): 50
AMBEL phytotoxicity rating (0-100 scale) ([15]; 62.5 g ai/ha): 60
AMBEL phytotoxicity rating (0-100 scale) [15, 28]: 65
AMBEL phytotoxicity rating (0-100 scale) [15, 29]: 75
SETVI phytotoxicity rating (0-100 scale) ([16]; 31.3 g ai/ha): 50
SETVI phytotoxicity rating (0-100 scale) ([16]; 62.5 g ai/ha): 60
SETVI phytotoxicity rating (0-100 scale) [16, 28]: 95
SETVI phytotoxicity rating (0-100 scale) [16, 29]: 95
IPOHE phytotoxicity rating (0-100 scale) ([17]; 125 g ai/ha): 100
IPOHE phytotoxicity rating (0-100 scale) ([17]; 250 g ai/ha): 100
SORHA phytotoxicity rating (0-100 scale) ([18]; 125 g ai/ha): 75
SORHA phytotoxicity rating (0-100 scale) ([18]; 250 g ai/ha): 75
CHEAL phytotoxicity rating (0-100 scale) ([19]; 31.3 g ai/ha): 100
CHEAL phytotoxicity rating (0-100 scale) ([19]; 62.5 g ai/ha): 100
CHEAL phytotoxicity rating (0-100 scale) [19, 28]: 100
CHEAL phytotoxicity rating (0-100 scale) [19, 29]: 100
DIGSA phytotoxicity rating (0-100 scale) ([20]; 125 g ai/ha): 50
DIGSA phytotoxicity rating (0-100 scale) ([20]; 250 g ai/ha): 55
AMARE phytotoxicity rating (0-100 scale) ([21]; 31.3 g ai/ha): 98
AMARE phytotoxicity rating (0-100 scale) ([21]; 62.5 g ai/ha): 100
AMARE phytotoxicity rating (0-100 scale) [21, 28]: 100
AMARE phytotoxicity rating (0-100 scale) [21, 29]: 100
CASOB phytotoxicity rating (0-100 scale) ([22]; 31.3 g ai/ha): 35
CASOB phytotoxicity rating (0-100 scale) ([22]; 62.5 g ai/ha): 85
CASOB phytotoxicity rating (0-100 scale) [22, 28]: 99
CASOB phytotoxicity rating (0-100 scale) [22, 29]: 100
ABUTH phytotoxicity rating (0-100 scale) ([23]; 125 g ai/ha): 100
ABUTH phytotoxicity rating (0-100 scale) ([23]; 250 g ai/ha): 100
corn phytotoxicity rating (0-100 scale) at 14 days [24]: 5
CORN crop damage, phytotoxicity rating (0-100 scale) ([25]; 125 g ai/ha): 7
CORN crop damage, phytotoxicity rating (0-100 scale) ([25]; 250 g ai/ha): 8
SOY crop damage, phytotoxicity rating (0-100 scale) ([26]; 125 g ai/ha): 65
SOY crop damage, phytotoxicity rating (0-100 scale) ([26]; 250 g ai/ha): 55
RICE crop damage, phytotoxicity rating (0-100 scale) ([27]; 125 g ai/ha): 50
RICE crop damage, phytotoxicity rating (0-100 scale) ([27]; 250 g ai/ha): 55
